In patent publication US9034921B2, “Diphenylmethane derivatives as SGLT2 inhibitors” (GREEN CROSS CORPORATION, priority 2011, dated 2015) one finds IC50 data, which are given here for eleven compounds.

Molecules are shown by their SMILES.

A word on the IC50: it is the midpoint of a concentration-inhibition curve. Low readings indicate greater potency in that assay, high ones weaker potency in that assay.

The experiment deals with human SGLT2 (Homo sapiens (Human), UniProt P31639). In words: Inhibitory effects on human SGLT2 activities (14C-AMG uptake, sodium-dependent glucose transport assay). Format: cell-based. The following applies: CHO cells stably expressing hSGLT2, 37° C., 2 h, single determinations. The text has this: Test 1: Cloning and Cell Line Construction for Human SGLT2
Chain of human SGLT2 (P31639 whole entry): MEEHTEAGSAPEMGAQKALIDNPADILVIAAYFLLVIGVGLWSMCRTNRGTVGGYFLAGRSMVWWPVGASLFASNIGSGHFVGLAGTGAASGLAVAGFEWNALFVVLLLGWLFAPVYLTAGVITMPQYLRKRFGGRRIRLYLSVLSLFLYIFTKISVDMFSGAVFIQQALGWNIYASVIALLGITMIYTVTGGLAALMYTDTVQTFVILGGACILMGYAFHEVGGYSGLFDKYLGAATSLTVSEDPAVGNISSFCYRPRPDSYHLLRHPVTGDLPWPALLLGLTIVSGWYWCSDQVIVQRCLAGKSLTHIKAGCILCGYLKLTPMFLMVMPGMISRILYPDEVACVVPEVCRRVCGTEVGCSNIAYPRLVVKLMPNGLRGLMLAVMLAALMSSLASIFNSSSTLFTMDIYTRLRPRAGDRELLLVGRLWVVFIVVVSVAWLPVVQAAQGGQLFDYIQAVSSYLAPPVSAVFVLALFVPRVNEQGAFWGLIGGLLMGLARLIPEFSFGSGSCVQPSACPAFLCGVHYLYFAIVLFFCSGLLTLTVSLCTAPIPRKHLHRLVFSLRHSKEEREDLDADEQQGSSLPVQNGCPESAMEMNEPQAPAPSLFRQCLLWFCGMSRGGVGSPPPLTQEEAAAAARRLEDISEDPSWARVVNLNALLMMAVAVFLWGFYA
Human SGLT2 (hSGLT2) gene was amplified by PCR from cDNA-Human Adult Normal Tissue Kidney (Invitrogen). The hSGLT2 sequence was cloned into pcDNA3.1(+) for mammalian expression and stably transfected into chinese hamster ovary (CHO) cells. SGLT2-expressing clones were selected based on resistance to G418 antibiotic (Geneticin) and activity in the ^14C-α-methyl-D-glucopyranoside (^14C-AMG) uptake assay.
Test 2: Inhibitory Effects on Human SGLT2 Activities
For sodium-dependent glucose transport assay, cells expressing hSGLT2 were seeded into a 96-well culture plate at a density of 5×10^4 cells/well in RPMI medium 1640 containing 10% fetal bovine serum. The cells were used 1 day after plating. They were incubated in pretreatment buffer (10 mM HEPES, 5 mM Tris, 140 mM choline chloride, 2 mM KCl, 1 mM CaCl2, and 1 mM MgCl2, pH 7.4) at 37° C. for 10 min. They were then incubated in uptake buffer (10 mM HEPES, 5 mM Tris, 140 mM NaCl, 2 mM KCl, 1 mM CaCl2, 1 mM MgCl2, and 1 mM ^14C-nonlabeled AMG pH 7.4) containing ^14C-labeled AMG (8 μM) and the inventive compound or dimethyl sulfoxide (DMSO) vehicle at 37° C. for 2 h. Cells were washed twice with washing buffer (pretreatment buffer containing 10 mM AMG at room temperature) and then the radioactivity was measured using a liquid scintillation counter. IC50 was determined by nonlinear regression analysis using GraphPad PRISM [Katsuno, K. et al. J. Pharmacol. Exp. Ther. 2007, 320, 323-330; Han, S. et al. Diabetes, 2008, 57, 1723-1729].
Compound `OC[C@H]1O[C@@H](c2ccc(Cl)c(Cc3ccc4c(c3)CCS4)c2)[C@H](O)[C@@H](O)[C@@H]1O` [Example E032, (2S,3R,4R,5S,6R)-2-(4-Chloro-3-((2,3-dihydrobenzo[b]thiophen-5-yl)methyl)phenyl)-6-(hydroxymethyl)tetrahydro-2H-pyran-3,4,5-triol] came in with an IC50 of 2.16 nM. The value for `OC[C@H]1O[C@@H](c2ccc(Cl)c(Cc3ccc4c(cnn4Cc4ccccc4)c3)c2)[C@H](O)[C@@H](O)[C@@H]1O` [Example E033, (2S,3R,4R,5S,6R)-2-(3-((1-Benzyl-1H-indazol-5-yl)methyl)-4-chlorophenyl)-6-(hydroxymethyl)tetrahydro-2H-pyran-3,4,5-triol] was 2.39 nM; that for `Cn1ccc2cc(Cc3cc([C@@H]4O[C@H](CO)[C@@H](O)[C@H](O)[C@H]4O)ccc3Cl)ccc21` [Example E034, (2S,3R,4R,5S,6R)-2-(4-Chloro-3-((1-methyl-1H-indol-5-yl)methyl)phenyl)-6-(hydroxymethyl)tetrahydro-2H-pyran-3,4,5-triol] was 2.98 nM; that for `Cn1ncc2cc(Cc3cc([C@@H]4O[C@H](CO)[C@@H](O)[C@H](O)[C@H]4O)ccc3Cl)ccc21` [Example E035, (2S,3R,4R,5S,6R)-2-(4-Chloro-3-((1-methyl-1H-indazol-5-yl)methyl)phenyl)-6-(hydroxymethyl)tetrahydro-2H-pyran-3,4,5-triol] was 1.72 nM.

Compound `Cn1cc2cc(Cc3cc([C@@H]4O[C@H](CO)[C@@H](O)[C@H](O)[C@H]4O)ccc3Cl)ccc2n1` [Example E036, (2S,3R,4R,5S,6R)-2-(4-Chloro-3-((2-methyl-2H-indazol-5-yl)methyl)phenyl)-6-(hydroxymethyl)tetrahydro-2H-pyran-3,4,5-triol] had a half-maximal inhibitory concentration (IC50) of 2.31 nM.

`CCn1ncc2cc(Cc3cc([C@@H]4O[C@H](CO)[C@@H](O)[C@H](O)[C@H]4O)ccc3Cl)ccc21` [Example E037, (2S,3R,4R,5S,6R)-2-(4-Chloro-3-((1-ethyl-1H-indazol-5-yl)methyl)phenyl)-6-(hydroxymethyl)tetrahydro-2H-pyran-3,4,5-triol] came in with an IC50 of 1.58 nM. `CCn1cc2cc(Cc3cc([C@@H]4O[C@H](CO)[C@@H](O)[C@H](O)[C@H]4O)ccc3Cl)ccc2n1` [Example E038, (2S,3R,4R,5S,6R)-2-(4-Chloro-3-((2-ethyl-2H-indazol-5-yl)methyl)phenyl)-6-(hydroxymethyl)tetrahydro-2H-pyran-3,4,5-triol]: the midpoint of inhibition, the IC50, lay at 1.76 nM. For `CC(C)n1ncc2cc(Cc3cc([C@@H]4O[C@H](CO)[C@@H](O)[C@H](O)[C@H]4O)ccc3Cl)ccc21` [Example E039, (2S,3R,4R,5S,6R)-2-(4-Chloro-3-((1-isopropyl-1H-indazol-5-yl)methyl)phenyl)-6-(hydroxymethyl)tetrahydro-2H-pyran-3,4,5-triol] the value was 1.76 nM; for `CC(C)n1cc2cc(Cc3cc([C@@H]4O[C@H](CO)[C@@H](O)[C@H](O)[C@H]4O)ccc3Cl)ccc2n1` [Example E040, (2S,3R,4R,5S,6R)-2-(4-Chloro-3-((2-isopropyl-2H-indazol-5-yl)methyl)phenyl)-6-(hydroxymethyl)tetrahydro-2H-pyran-3,4,5-triol], 4.44 nM; for `COc1cc([C@@H]2O[C@H](CO)[C@@H](O)[C@H](O)[C@H]2O)cc(Cc2ccc3c(c2)OCCO3)c1Cl` [Example E043, (2S,3R,4R,5S,6R)-2-(4-Chloro-3-((2,3-dihydrobenzo[b][1,4]dioxin-6-yl)methyl)-5-methoxyphenyl)-6-(hydroxymethyl)tetrahydro-2H-pyran-3,4,5-triol], 2.68 nM. For `OC[C@H]1O[C@@H](c2cc(Cc3ccc4c(c3)OCCO4)c(Cl)c3c2OCCC3)[C@H](O)[C@@H](O)[C@@H]1O` [Example E044, (2S,3R,4R,5S,6R)-2-(5-Chloro-6-((2,3-dihydrobenzo[b][1,4]dioxin-6-yl)methyl)chroman-8-yl)-6-(hydroxymethyl)tetrahydro-2H-pyran-3,4,5-triol] the value was 1.65 nM.
